{
  "source": "patent US11786507B2",
  "about": "“Methods of treating HIV-associated neurological disorders (HAND)” (priority 2020, dated 2023)",
  "key": {"[1]": {"test_system": "hippocampal slice cultures", "conditions": "cited from earlier work"}, "striatal neurons": {"test_system": "striatal neurons", "conditions": "cited from earlier work"}, "[2]": {"test_system": "cerebellar granule neurons", "conditions": "cited from earlier work"}, "iTat mice [3]": {"test_system": "iTat mice", "assay": "Morris Water Maze (MWZ), training stage and probe test", "assay_type": "in vivo, mouse", "text": "(§1) Doxycycline (Dox)-inducible and astrocyte-specific HIV-1 Tat-transgenic mice (iTat) were generated as previously described.^38 Wild-type (Wt, C57BL/6) and α7 nAChR knockout mice (α7^−/−, B6.129S7-Chrna^7tm1Ba/J) were purchased from the Jackson Laboratory (Bar Harbor, ME). All the animal procedures were approved by the Institutional Animal Care and Use Committee. Mice were housed with a 12-hour light and 12-hour dark photoperiod and provided water and food ad libitum. α7^−/− iTat mice were generated by cross breeding iTat mice with α7^−/− mice. α7^−/− genotyping was slightly modified with the JumpStart™ Taq DNA Polymerase-based PCR (JumpStart™ Taq DNA Polymerase, Sigma, catalog #D9307). […] Mice of 10-14 weeks old with body weights of 20-35 grams were fed with Dox-containing diet (0.625 g/kg, Envigo, catalog #TD.01306) as stated.\n(§2) Open Field Test (OPT) and Morris Water Maze (MWZ) were performed sequentially using a computerized video tracking system (Anymaze, Stoelting) to determine the spontaneous locomotor activity and spatial learning and memory, respectively. For OPT, each mouse was allowed to move freely around a clear acrylic chamber (40.5×40.5×30.5 cm) for 10 minutes. Travel distance and maximum speed was determined by the AnyMaze software. For MWZ, a circle pool (1.2 m diameter) surrounded with a curtain was divided into four equal quadrants, and four signs with different shape were fixed onto the middle of each quadrant wall above the opaque water (24±1° C.). A hidden platform (1.5 cm below water surface) was put into a certain quadrant. Two stages consisting of 5-day training and probe test were carried out. In the training stage, four trials with a 15-20 minute interval were conducted in the every-day training, and for each trial mice were allowed to freely seek the platform within 90 seconds right after they were randomly put into one quadrant facing to the pool wall. If the mice found the platform within 90 seconds, 10 seconds would be added to allow them staying on the platform for memorizing, however, if failed, they would be directed toward the platform and allowed to stay on it for 15 seconds. Mice that were immobile or floating and unable to find the platform during the training stages were excluded from the experiments. Probe test was carried out on the next day following the 5-day training stage with a 60 seconds trial, and the platform was removed to prevent the mice from climbing onto it during the testing. One day after the behavioral tests, mice were euthanized and the brains were harvested.\nTo determine if α7 nAChR is involved in HAND, iTat mice were fed with Dox-containing food pellets for 7 days, […], and then subjected to open field test (OPT) for locomotor activity on day 14, and Morris Water Maze test (MWZ) for learning and spatial memory on day 15-20, and euthanized to harvest tissues on day 21 (FIG. 1A). Dox-containing food pellet feeding and PAM injection continued during the next 7 days of behavioral tests. To minimize the effects of injection on behavioral tests, PAM was injected 5 hours after each behavioral test."}, "iTat mice [4]": {"test_system": "iTat mice", "assay": "Western blotting of SYP, PSD-95, GFAP, Iba-1 in cortex and hippocampus", "assay_type": "in vivo, mouse", "conditions": "CORT and HIP, SB239063-treated iTat vs Wt", "text": "as §1\nA RIPA buffer (50 mM Tris.HCl, pH 8.0, 280 mM NaCl, 0.5% NP-40, 1% C24H39NaO4, 0.2 mM EDTA, 2 mM EGTA and 10% glycerol) supplemented with protease inhibitors (Millipore-Sigma, catalog #S8830) and phosphatase inhibitors (Millipore-Sigma, catalog #4906845001) was used to lyse the brain tissues and cultured cells with brief sonication on ice. Protein concentrations of the lysates were determined using a Bio-Rad DC protein assay kit (Bio-Rad, catalog #5000111). Lysates were denatured in the SDS-PAGE loading buffer at 100° C. for 10 min, then electrophoretically separated by 8-15% SDS-PAGE, blotted onto 0.45 μm polyvinylidene fluoride membrane (GE Healthcare Life Sciences, catalog #10600023), and probed using appropriate antibodies against PSD-95 (Abcam, catalog #ab18258, and 1:2000 dilution), SYP (Abcam, catalog #ab8049, and 1:1000 dilution), Iba-1 (Wako, catalog #016-20001, and 1:500 dilution) and GFAP (DAKO, catalog #z330s, and 1:2000 dilution), p-p38 (Santa Cruz, catalog #sc-166182, and 1:1000 dilution), p38 (Santa cruz, catalog #sc-535, and 1:1000 dilution), p-JNK (Santa cruz, catalog #sc-6254, and 1:1000 dilution), JNK (Santa cruz, catalog #sc-571, and 1:1000 dilution), p-ERK (Santa cruz, catalog #sc-7383, and 1:1000 dilution), and ERK (Santa cruz, catalog #sc-514302, and 1:1000 dilution), α7 nAChR (Alomone, catalog #ANC-007, and 1:1000 dilution) and β-actin (Sigma-Aldrich, catalog #A1978, and 1:2000 dilution). A Bio-Rad ChemicDoc imaging system (Bio-Rad) and Image J were used for image capturing and analysis, respectively. […]"}, "iTat mice [5]": {"test_system": "iTat mice", "assay": "Open Field Test (OPT), locomotor activity", "assay_type": "in vivo, mouse", "text": "as §1, §2\nTo determine if α7 nAChR is involved in HAND, iTat mice were fed with Dox-containing food pellets for 7 days, injected s.c. with a well-studied and highly specific positive allosteric modulator (PAM) PNU-120596 of α7 nAChR^73,74 […], and then subjected to open field test (OPT) for locomotor activity on day 14, and Morris Water Maze test (MWZ) for learning and spatial memory on day 15-20, and euthanized to harvest tissues on day 21 (FIG. 1A). Dox-containing food pellet feeding and PAM injection continued during the next 7 days of behavioral tests. To minimize the effects of injection on behavioral tests, PAM was injected 5 hours after each behavioral test."}, "[6]": {"conditions": "iTat vs Wt mice, SB239063 15 mg/kg/day i.p."}},
  "data": [
    {"smiles": "Oc1ccc(-c2nc(-c3ccc(F)cc3)c(-c3ccncc3)[nH]2)cc1", "note": "[SB202190]", "values": [
      {"measurement": "Tat-induced inflammation and oxidation", "setting": "[1]", "result": "decreased"}
    ]},
    {"smiles": "C[S+]([O-])c1ccc(-c2nc(-c3ccc(F)cc3)c(-c3ccncc3)[nH]2)cc1", "note": "(stereo not drawn) [SB203580]", "values": [
      {"measurement": "Tat-induced neurite losses and cell death", "setting": "striatal neurons", "result": "failed to block"},
      {"measurement": "Tat-induced apoptosis", "setting": "[2]", "result": "prevented"}
    ]},
    {"smiles": "COc1nccc(-c2c(-c3ccc(F)cc3)ncn2C2CCC(O)CC2)n1", "note": "(stereo not drawn) [SB239063]", "values": [
      {"measurement": "MWZ probe test platform entries, time at/distance to target quadrant, time at/distance to platform", "setting": "iTat mice [3]; SB239063-treated female iTat mice vs vehicle-treated female Wt and iTat and SB239063-treated female Wt", "result": "fewer platform entries, shorter time at target quadrant, distance to target quadrant, time at platform, and distance to platform"},
      {"measurement": "Cognition, learning and memory effects", "setting": "iTat mice [3]; Wt mice treated with SB239063", "result": "Some beneficial effects"},
      {"measurement": "MWZ probe test latency to platform", "setting": "iTat mice [3]; female iTat mice, SB239063 vs vehicle", "result": "longer latency to platform than vehicle-treated female iTat mice"},
      {"measurement": "MWZ training stage cumulative distance", "setting": "iTat mice [3]; [6]", "result": "difference between SB239063-treated male iTat and male Wt mice on day 2 and 3 and female iTat and Wt mice on day 4"},
      {"measurement": "MWZ training stage escape latency", "setting": "iTat mice [3]; [6]", "result": "even longer escape latency than Wt mice, with differences on day 3 and 4 for male mice"},
      {"measurement": "MWZ probe test platform entries, distance to target quadrant, distance to platform", "setting": "iTat mice [3]; male iTat vs male Wt mice, SB239063 15 mg/kg/day i.p.", "result": "fewer platform entries, shorter distance to target quadrant and distance to platform than Wt male mice"},
      {"measurement": "SYP, GFAP and Iba-1 expression", "setting": "iTat mice [4]; female mice", "result": "lower SYP, GFAP and Iba-1 with differences than SB239063-treated Wt mice"},
      {"measurement": "PSD-95 expression", "setting": "iTat mice [4]; male and female", "result": "lower PSD-95 than SB239063-treated Wt mice"},
      {"measurement": "SYP and GFAP expression", "setting": "iTat mice [4]; male mice", "result": "no differences of SYN and GFAP (except HIP) from SB239063-treated Wt mice"},
      {"measurement": "OPT travel distance and maximum speed, Wt vs iTat mice", "setting": "iTat mice [5]; SB239063 15 mg/kg/day i.p., male and female", "result": "no significant differences in travel distance and maximum speed between Wt and iTat mice"},
      {"measurement": "OPT performance, female vs male mice", "setting": "iTat mice [5]; Wt and iTat mice in response to SB239063", "result": "both female Wt and female iTat mice performed better in the OPT than male Wt and male iTat mice"},
      {"measurement": "OPT travel distance, SB239063-treated vs vehicle-treated", "setting": "iTat mice [5]; female Wt and iTat mice, 15 mg/kg/day i.p.", "result": "difference of travel distance between SB239063-treated and vehicle-treated female mice"}
    ]}
  ]
}
